According to US8415379B2, “Pyridines” (Hoffmann-La Roche Inc., priority 2009, dated 2013):

Target: T1, GABA A α5 (human receptors of composition α5β3γ2) (Homo sapiens, UniProt P18507+P31644)
T1 construct: expressed in transfected cells; host or cells: HEK293 cells, transiently transfected; membrane homogenates used
Assay: [3H]flumazenil competition binding assay, human GABA A α5β3γ2 receptors in HEK293 cells
Conditions: displacement of 0.5 nM [3H]flumazenil, HEK293 membranes, 1 hour at 4° C., means of two determinations, read-out: hKi GABA A α5
Method: The affinity of compounds at GABA A receptor subtypes was measured by competition for [^3H]flumazenil (85 Ci/mmol; Roche) binding to HEK293 cells expressing rat (stably transfected) or human (transiently transfected) receptors of composition α1β3γ2, α2β3γ2, α3β3γ2 and α5β3γ2.
Cell pellets were suspended in Krebs-tris buffer (4.8 mM KCl, 1.2 mM CaCl2, 1.2 mM MgCl2, 120 mM NaCl, 15 mM Tris; pH 7.5; binding assay buffer), homogenized by polytron for ca. 20 sec on ice and centrifuged for 60 min at 4° C. (50000 g; Sorvall, rotor: SM24=20000 rpm). The cell pellets were re-suspended in Krebs-tris buffer and homogenized by polytron for ca. 15 sec on ice. Protein was measured (Bradford method, Bio-Rad) and aliquots of 1 mL were prepared and stored at −80° C.
Radioligand binding assays were carried out in a volume of […] (96-well plates) which contained […] of cell membranes, [^3H]flumazenil at a concentration of 1 nM for α1, α2 and α3 subunits and 0.5 nM for α5 subunits and the test compound in the range of […]. Nonspecific binding was defined by 10^−5 M diazepam and typically represented less than 5% of the total binding. Assays were incubated to equilibrium for 1 hour at 4° C. and harvested onto GF/C uni-filters (Packard) by filtration using a Packard harvester and washing with ice-cold wash buffer (50 mM Tris; pH 7.5). After drying, filter-retained radioactivity was detected by liquid scintillation counting. Ki values were calculated using Excel-Fit (Microsoft) and are the means of two determinations.

Structure (SMILES)	Ki [nM]
CC[C@@H](CO)NC(=O)c1ccc(OCc2c(-c3ccc(F)cc3)noc2CO)cn1 [Example 34, 5-[3-(4-Fluoro-phenyl)-5-hydroxymethyl-isoxazol-4-ylmethoxy]-pyridine-2-carboxylic acid ((S)-1-hydroxymethyl-propyl)-amide]	8.3
CC(C)(C)NC(=O)c1ccc(OCc2c(-c3ccc(F)cc3)noc2CO)cn1 [Example 36, 5-[3-(4-Fluoro-phenyl)-5-hydroxymethyl-isoxazol-4-ylmethoxy]-pyridine-2-carboxylic acid tert-butylamide]	74.2
O=C(c1ccc(OCc2c(-c3ccc(F)cc3)noc2CO)cn1)N1CCC(F)(F)CC1 [Example 37, (4,4-Difluoro-piperidin-1-yl)-{5-[3-(4-fluoro-phenyl)-5-hydroxymethyl-isoxazol-4-ylmethoxy]-pyridin-2-yl}-methanone]	10.2

Molecules with a lower Ki, results first:

Ki [nM]	Structure (SMILES)
3.4	Cn1cc(NC(=O)c2ccc(OCc3c(-c4ccc(F)cc4)noc3CO)cn2)cn1 [Example 35, 5-[3-(4-Fluoro-phenyl)-5-hydroxymethyl-isoxazol-4-ylmethoxy]-pyridine-2-carboxylic acid (1-methyl-1H-pyrazol-4-yl)-amide]
3.4	O=C(NN1CCCC1)c1ccc(OCc2c(-c3ccc(F)cc3)noc2CO)cn1 [Example 38, 5-[3-(4-Fluoro-phenyl)-5-hydroxymethyl-isoxazol-4-ylmethoxy]-pyridine-2-carboxylic acid pyrrolidin-1-ylamide]
0.8	O=C(NN1CCOCC1)c1ccc(OCc2c(-c3ccc(F)cc3)noc2CO)cn1 [Example 39, 5-[3-(4-Fluoro-phenyl)-5-hydroxymethyl-isoxazol-4-ylmethoxy]-pyridine-2-carboxylic acid morpholin-4-ylamide]
